Test results from patent publication US6342522B1, “Microbiocidal compositions” (priority 1998, dated 2002).
“And” between values parts separate entries of the source, which are not always exact repeats. Equal entries are not always repeated.

Tests used:
Experiment in all cases: MIC, two-fold serial dilutions in Malt Agar, synergism by Kull method
Assay type in all cases: cell-based
Penicillium sp. = tested on: Penicillium sp.
Protocol: (§1) Each test tube was inoculated to make about 5×10^5 fungi per mil. The lowest concentrations of each compound or mixtures to inhibit visible growth (turbidity) at 30° C. for the fungi for 7 days were taken as the minimum inhibitory concentration (MIC). The MIC were taken as end points of activity. End points for the mixtures of compound A (Guanadine component) and Compound B (second Component microbiocide) were then compared with the end points for the guanadine component A alone and compound B alone. Synergism was determined by a commonly used and accepted method described by Kull, F. C.; Eisman, P. C.; Sylwestrowicz, H. D. and Mayer, R. L. in Applied Microbiology 9:538-541 (1961) using the ratio determined by Qa/QA+Qb/QB==Synergy Index (SI) wherein:
(§2) QA=concentration of compound A in parts per million (ppm), acting alone, which produced an end point.
(§3) Qa=concentration of compound A in ppm, in the mixture which produced an end point.
(§4) QB=concentration of compound B in ppm, acting alone which produced an end point.
(§5) Qb=concentration of compound B in ppm, in the mixture which produced an end point.
(§6) When the sum of Qa/QA and Qb/QB is greater than one, antagonism is indicated.
(§7) The MIC values of each compound tested alone (QA or QB) are end-point activities except where the value is expressed as […]. In these cases, the end-point activity was not seen at the highest tested concentration. For purpose of calculation of the synergy index and for operational definition of MIC, the reported value could be an underestimate of the true MIC; thus the true synergy index could be even lower.

Coriolus versicolor = tested on: Coriolus versicolor
Protocol: as §1, §2, §3, §4, §5, §6, §7

Alternaria sp = tested on: Alternaria sp
Protocol: as §1, §2, §3, §4, §5, §6, §7

Ophiostoma sp. = tested on: Ophiostoma sp.
Protocol: as §1, §2, §3, §4, §5, §6, §7

Tyromyces palustris = settings: 30° C., 7 days
Protocol: as §1, §2, §3, §4, §5, §6, §7

Diplodia sp. = settings: 30° C., 7 days
Protocol: as §1, §2, §3, §4, §5, §6, §7

## 3-iodo-2-propynylbutyl carbamate [Iodocarb]
Penicillium sp.; Penicillium sp, 30° C., 7 days
  QB, end-point activity (MIC) of compound B acting alone: 4 ppm
Coriolus versicolor; c versicolor, 30° C., 7 days
  QB, end-point activity (MIC) of compound B acting alone: 16 ppm

## CCCN(CCOc1c(Cl)cc(Cl)cc1Cl)C(=O)n1ccnc1 [Prochloraz, N-propyl-N-(2-(2,4,6-trichlorophenoxy)ethyl)-imidazole-1-carboximide]
Alternaria sp; Alternaria, 168 h, read-out: QB, end-point activity (MIC) of compound B acting alone
  MIC: 4 µg/mL
Ophiostoma sp.; 168 h, read-out: QB, end-point activity (MIC) of compound B acting alone
  MIC: 2 µg/mL
Penicillium sp.; Penicillium, 168 h, read-out: QB, end-point activity (MIC) of compound B acting alone
  MIC: 32 µg/mL
Tyromyces palustris; 168 h, read-out: QB, end-point activity (MIC) of compound B acting alone, T palustri
  MIC: 64 µg/mL
Tyromyces palustris; T palustri
  QB, end-point activity (MIC) of compound B acting alone: 128 ppm
Coriolus versicolor; Trametes versicolor, 168 h, read-out: QB, end-point activity (MIC) of compound B acting alone
  MIC: 4 µg/mL

## N=C(N)NCCCCCCCCNCCCCCCCCNC(=N)N [Guazatine, 1,1-iminodi(octamethylene)diguanidine]
Alternaria sp; Alternaria sp, 30° C., 7 days
  QA, end-point activity (MIC) of compound A acting alone: 32 ppm
Diplodia sp.
  QA, end-point activity (MIC) of compound A acting alone: 64 ppm
Ophiostoma sp.; Ophiosroma sp, 30° C., 7 days
  QA, end-point activity (MIC) of compound A acting alone: 1 ppm
Penicillium sp.; Penicillium sp, 30° C., 7 days
  QA, end-point activity (MIC) of compound A acting alone: 128 ppm
Tyromyces palustris; T palustri
  QA, end-point activity (MIC) of compound A acting alone: 128 ppm
Coriolus versicolor; c versicolor, 30° C., 7 days
  QA, end-point activity (MIC) of compound A acting alone: 32 ppm and 64 ppm
